# From BindingDB's records for doi:10.7270/Q2KK9971 (Nmmlsc, 2009)
# Target: T1, GTPase KRas [1-37] (Homo sapiens, UniProt G3V5T7)
# T1 construct: 1-37
# Test: Ras wild-type GTP-binding inhibitors, SAR follow-up, biochemical, pyrazoline analogs, multiplex bead flow cytometry (AID 2047)
# Settings: not given
# T1 sequence (G3V5T7 whole entry): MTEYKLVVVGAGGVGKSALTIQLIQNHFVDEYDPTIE
row,SMILES,EC50
1,CN(C)c1ccc(C2CC(c3ccc(Br)cc3)=NN2c2ccccc2)cc1 (stereo not given) [UNM-0000305846],> 30 µM
2,CN(C)c1ccc(C2CC(c3ccc(Cl)cc3)=NN2c2ccccc2)cc1 (stereo not given) [UNM-0000305847],> 30 µM
3,COc1ccc(C2=NN(c3ccccc3)C(c3ccc(OC)c(OC)c3C(=O)O)C2)cc1 (stereo not given) [UNM-0000305848],> 30 µM
4,Cc1ccccc1[N+]1=N[C-](c2ccccc2)CC1c1cccc([N+](=O)[O-])c1 (stereo not given) [UNM-0000305854],> 30 µM
5,COc1ccccc1N1N=C(c2ccccc2)CC1c1ccccc1 (stereo not given) [UNM-0000305855],> 30 µM
6,O=[N+]([O-])c1cccc(C2C[C-](c3ccccc3)N=[N+]2c2ccccc2)c1 (stereo not given) [UNM-0000305857],> 30 µM
7,FC(F)(F)c1cccc(N2N=C(c3ccc(Cl)cc3)CC2c2ccccc2Cl)c1 (stereo not given) [UNM-0000305859],> 30 µM
8,COc1ccc(C2=NN(c3ccc(Cl)cc3)C(c3ccccc3F)C2)cc1 (stereo not given) [UNM-0000305863],> 30 µM
9,COc1ccc(C2CC(c3ccc(F)cc3)=NN2c2ccccc2)cc1OC (stereo not given) [UNM-0000305864],> 30 µM
10,CN(C)c1ccc(C2CC(c3ccc(F)cc3)=NN2c2ccccc2)cc1 (stereo not given) [UNM-0000305866],> 30 µM

# Second part, the compound after the results:
row,EC50,SMILES
1,> 30 µM,COc1ccc(C2CC(c3ccccc3)=NN2c2ccc(C(N)=O)cc2)cc1 (stereo not given) [UNM-0000305870]
2,> 30 µM,COc1ccc(C2CC(c3ccccc3)=NN2c2ccc(C(=O)O)cc2)cc1 (stereo not given) [UNM-0000306085]
3,> 30 µM,COc1ccc(C2CC(c3ccccc3F)=NN2c2ccc(S(N)(=O)=O)cc2)cc1 (stereo not given) [UNM-0000306110]
4,> 30 µM,COc1ccc(C2CC(c3ccccc3Br)=NN2c2ccc(S(N)(=O)=O)cc2)cc1 (stereo not given) [UNM-0000306112]
5,> 30 µM,COc1ccc(C2CC(c3cccc(Br)c3)=NN2c2ccc(S(N)(=O)=O)cc2)cc1 (stereo not given) [UNM-0000306113]
6,> 30 µM,COc1ccc(C2CC(c3cccc(Cl)c3)=NN2c2ccc(S(N)(=O)=O)cc2)cc1 (stereo not given) [UNM-0000306134]
7,> 30 µM,COc1ccc(C2CC(c3ccc(Br)cc3)=NN2c2ccc(S(N)(=O)=O)cc2)cc1 (stereo not given) [UNM-0000306138]
8,> 30 µM,NS(=O)(=O)c1ccc(N2N=C(c3ccccc3)CC2c2cccc(Br)c2)cc1 (stereo not given) [UNM-0000306147]
9,> 30 µM,Cc1ccccc1C1CC(c2ccccc2)=NN1c1ccc(S(N)(=O)=O)cc1 (stereo not given) [UNM-0000306148]
10,> 30 µM,COc1ccc(C2CC(c3ccccc3C)=NN2c2ccc(S(N)(=O)=O)cc2)cc1 (stereo not given) [UNM-0000306152]
11,> 30 µM,COc1ccc(C2CC(c3cccc(C)c3)=NN2c2ccc(S(N)(=O)=O)cc2)cc1 (stereo not given) [UNM-0000306153]
12,> 30 µM,NS(=O)(=O)c1ccc(N2N=C(c3ccccc3)CC2c2ccc(Br)cc2)cc1 (stereo not given) [UNM-0000306160]
13,> 30 µM,NS(=O)(=O)c1ccc(N2N=C(c3ccccc3)CC2c2cccc(Cl)c2)cc1 (stereo not given) [UNM-0000306161]

# Same assay, conditions: inactive by the depositor's call
row,EC50,SMILES
1,0.079 µM,COc1ccc(C2CC(c3ccc(Cl)cc3)=NN2c2ccccc2)cc1OC (stereo not given) [UNM-0000305858]
2,13.5 µM,COc1ccc(C2=NN(c3ccccc3F)C(c3ccc(F)cc3)C2)cc1 (stereo not given) [UNM-0000305860]
